Experimental data from patent US9035059B2, “Nitrogen-containing condensed heterocyclic compound” (TAISHO PHARMACEUTICAL CO., LTD., priority 2011, dated 2015).
Where two headings read alike, the source gives them in different places.

Key:
[1] = molecular target: MGAT2 (microsomal fraction of human small intestine) (Homo sapiens (Human), UniProt Q3SYC2); assay: Test Example 2: Test of MGAT2 inhibitory action (microsomal fraction of human small intestine, 3H-labeled 2-monooleoyl glycerol); type: biochemical; settings: microsomal fraction of human small intestine 5 μg/ml; 4 μM oleoyl-CoA, 1.25 μM 2-monooleoyl glycerol, 0.125 μM 3H-labeled 2-monooleoyl glycerol; room temperature 30 min; read-out: Activity Value [nM] (IC50, concentration at which 50% of the products 3H-labeled dioleoyl glycerol and trioleoyl glycerol was inhibited)
Chain of MGAT2 (microsomal fraction of human small intestine) (Q3SYC2 whole entry): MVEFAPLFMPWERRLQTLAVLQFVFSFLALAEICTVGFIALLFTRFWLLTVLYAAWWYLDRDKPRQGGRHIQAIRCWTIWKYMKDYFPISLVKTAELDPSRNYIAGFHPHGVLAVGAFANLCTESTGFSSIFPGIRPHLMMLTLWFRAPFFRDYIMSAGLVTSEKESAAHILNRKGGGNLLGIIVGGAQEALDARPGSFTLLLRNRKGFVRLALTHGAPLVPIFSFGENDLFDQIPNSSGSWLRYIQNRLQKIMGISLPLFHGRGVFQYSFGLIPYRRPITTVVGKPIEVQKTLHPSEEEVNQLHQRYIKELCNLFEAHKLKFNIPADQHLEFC
Method: An MGAT2 inhibition test for test compounds was conducted in accordance with a partially modified version of the method described in John F. Lockwood et al., Am. J. Physiol. Endocrinol. Metab., 2003, 285, E927.
A 10 mg/mL microsomal fraction of human small intestine (duodenum- and jejunum-derived fraction purchased from Becton Dickinson Japan) was used as an enzyme source.
The test was conducted using a flat-bottom 96-well plate (Corning).
A buffer solution with final concentrations of 5 mM magnesium chloride, 1.25 mg/ml bovine serum albumin and 100 mM Tris-HCl (pH=7.5) was prepared and the microsomal fraction of human small intestine was added thereto to give a final concentration of 5 μg/ml. […] Thereafter, final concentrations of 5 mM magnesium chloride, 1.25 mg/ml bovine serum albumin, 100 mM Tris-HCl (pH=7.5), 4 μM oleoyl-CoA, 1.25 μM 2-monooleoyl glycerol and 0.125 μM ^3H-labeled 2-monooleoyl glycerol (Muromachi Yakuhin Co., Ltd.) were added thereto to give a total volume of 100 μl. This mixture was reacted at room temperature for 30 min.
The reaction was stopped by adding an equal amount of isopropanol to the reaction mixture. The substrate contained in the reaction mixture (^3H-labeled 2-monooleoyl glycerol) and the reaction products (^3H-labeled dioleoyl glycerol and trioleoyl glycerol) were separated by adsorbing them onto an octadecylsilane resin (Wako gel 50C18) (Wako Pure Chemical Industries, Ltd.), removing the substrate by use of 80% isopropanol, and then eluting the reaction products with 100% isopropanol. The amounts of the reaction products were measured with MicroBeta (PerkinElmer Japan).

human MGAT2 = human MGAT2 (Homo sapiens (Human), UniProt Q3SYC2); assay: Test Example 1: Test of MGAT2 inhibitory action (human MGAT2 enzyme fraction from Sf9 cells, free CoA detected by CPM fluorescence); type: biochemical; settings: human MGAT2 enzyme fraction expressed in Sf9 insect cells, 0.5 μg/ml, 2-monooleoyl glycerol 0.78 μM, oleoyl-CoA 5.3 μM, room temperature 20 min
Chain of human MGAT2 (Q3SYC2 whole entry): as above
Method: The MGAT2 inhibitory action of the inventive compound was measured by the methods described in Test Examples as shown below. The MGAT enzyme activity was measured based on the amount of an indicator, free Coenzyme A (CoA) which is generated by the reaction shown below, using a sulfhydryl reactive pigment (7-diethylamino-3-(4-maleimidophenyl)-4-methylcoumarin; hereinafter, sometimes abbreviated as CPM).
A test for MGAT2 inhibitory action of test compounds was conducted in accordance with a partially modified version of the method described in John F. Lockwood et al., Am. J. Physiol. Endocrinol. Metab., 2003, 285, E927.
Bac-to-Bac Baculovirus Expression System (Life Technologies Japan) was used to express human MGAT2 in insect cells (Sf9) (Life Technologies Japan). These cells were sonicated and centrifuged at 100,000 g×1 hr to give a precipitate. The precipitate was used as a human MGAT2 enzyme fraction in this assay.
This test was conducted using a black flat-bottom 96-well plate (Corning). A buffer solution with final concentrations of 5 mM magnesium chloride, 100 mM sucrose and 100 mM Tris-HCl (pH=7.5) was prepared and test compounds prepared in various concentrations using dimethyl sulfoxide were added thereto to give a final dimethyl sulfoxide concentration of 1%. The MGAT2 enzyme fraction was added thereto to give a final concentration of 0.5 μg/ml and phosphatidylcholine, 2-monooleoyl glycerol and oleoyl-CoA were added thereto to give final concentrations of 7.5 μM, 0.78 μM and 5.3 μM, respectively, before starting a reaction. The reaction was performed at room temperature for 20 min.
After 20 min, a CPM-containing solution was added thereto to give a final concentration of 5 μM before stopping the MGAT reaction. After 1 hr, a fluorescence detector (Infinite 200 from Tecan Japan) was used to measure the CPM fluorescence value of each well (excitation 380 nm, emission 460 nm).

[2] = read-out: Activity Value [nM] (IC50, concentration at which 50% of produced free CoA was inhibited)

| SMILES | IC50 [1] [nM] | other results |
| --- | --- | --- |
| CC(c1ccc(C(F)(F)F)nc1)N1CCc2cc(S(=O)(=O)Nc3ccc(CCCC4CCCC4)cc3F)ccc2C1 (single isomer, unassigned) [24-3] | 42 |  |
| CC(c1ccc(C(F)(F)F)nc1)N1CCc2cc(S(=O)(=O)Nc3ccc(CCCC4CCCC4)cc3F)ccc2C1 (single isomer, unassigned) [24-4] | 185 |  |
| CC(c1cnc(C(C)(C)C)nc1)N1CCc2cc(S(=O)(=O)Nc3ccc(CCCC4CCCC4)cc3F)ccc2C1 (single isomer, unassigned) [24-7] | 57 |  |
| CC(c1cnc(C(C)(C)C)nc1)N1CCc2cc(S(=O)(=O)Nc3ccc(CCCC4CCCC4)cc3F)ccc2C1 (single isomer, unassigned) [24-8] | 34 |  |
| CC(c1cnc(C(F)(F)F)nc1)N1CCc2cc(S(=O)(=O)Nc3ccc(CCCC4CCCC4)cc3F)ccc2C1 (single isomer, unassigned) [24-9] | 131 |  |
| CC(c1cnc(C(F)(F)F)nc1)N1CCc2cc(S(=O)(=O)Nc3ccc(CCCC4CCCC4)cc3F)ccc2C1 (single isomer, unassigned) [24-10] | 100 |  |
| CC(C)(C)c1ccc(CC(C)(C)N2CCc3cc(S(=O)(=O)Nc4ccc(CCCC5CCCC5)cc4F)ccc3C2)cc1 [20-2] | 14 |  |
| CC(C)(C)c1ccc(CC(C)(C)N2CCc3cc(S(=O)(=O)Nc4ccc(OCCC5CCOCC5)cc4F)ccc3C2)cc1 [20-3] | 223 |  |
| CC(C)(C)c1ccc(C(C)(C)N2CCc3cc(S(=O)(=O)Nc4ccc(CCCC5CCCC5)cc4F)ccc3C2)cn1 [20-4] | 5 |  |
| CC(c1ccnc(C(C)(C)C)c1)N1CCc2cc(S(=O)(=O)Nc3ccc(CCCC4CCCC4)cc3F)ccc2C1 (stereo not shown) [23-3] | 13 |  |
| CC(c1ccc(OCC(F)(F)F)nc1)N1CCc2cc(S(=O)(=O)Nc3ccc(CCCC4CCCC4)cc3F)ccc2C1 (stereo not shown) [23-6] | 115 |  |
| C[C@H](c1ccc(C(C)(C)C)nc1)N1CCc2cc(S(=O)(=O)Nc3ccc(CCCC4CCCC4)cc3F)ccc2C1 [24-1, 2-[(1R)-1-(6-tert-Butylpyridin-3-yl)ethyl]-N-[4-(3-cyclopentylpropyl)-2-fluorophenyl]-1,2,3,4-tetrahydroisoquinoline-6-sulfonamide] | 4 |  |
| C[C@@H](c1ccc(C(C)(C)C)nc1)N1CCc2cc(S(=O)(=O)Nc3ccc(CCCC4CCCC4)cc3F)ccc2C1 [24-2, 2-[(1S)-1-(6-tert-butylpyridin-3-yl)ethyl]-N-[4-(3-cyclopentylpropyl)-2-fluorophenyl]-1,2,3,4-tetrahydroisoquinoline-6-sulfonamide] | 29 |  |
| CC(C)(C)c1ccc(CC2(N3CCc4cc(S(=O)(=O)Nc5ccc(CCCC6CCCC6)cc5F)ccc4C3)CC2)cc1 [25-1, 2-[1-(4-tert-Butylbenzyl)cyclopropyl]-N-[4-(3-cyclopentylpropyl)-2-fluorophenyl]-1,2,3,4-tetrahydroisoquinoline-6-sulfonamide] | 200 |  |
| CC(C)(C)c1ccc(C2(N3CCc4cc(S(=O)(=O)Nc5ccc(CCCC6CCCC6)cc5F)ccc4C3)CC2)cn1 [25-2] | 60 |  |
| CC(C)(C)n1cc(CN2CCc3cc(S(=O)(=O)Nc4ccc(CCCC5CCCC5)cc4F)ccc3C2)cn1 [Working Example 2-4] | 92 |  |
| CC(C)n1cc(CN2CCc3cc(S(=O)(=O)Nc4ccc(CCCC5CCCC5)cc4F)ccc3C2)cn1 [Working Example 2-5] | 180 |  |
| CC(C)Cn1cc(CN2CCc3cc(S(=O)(=O)Nc4ccc(CCCC5CCCC5)cc4F)ccc3C2)cn1 [Working Example 2-6] | 174 |  |
| O=S(=O)(Nc1ccc(CCCC2CCCC2)cc1F)c1ccc2c(c1)CCN(Cc1cnn(CC3CC3)c1)C2 [Working Example 2-7] | 234 |  |
| CCCn1cc(CN2CCc3cc(S(=O)(=O)Nc4ccc(CCCC5CCCC5)cc4F)ccc3C2)cn1 [Working Example 2-8] | 213 |  |

| SMILES | IC50 [1] [nM] | other results |
| --- | --- | --- |
| O=S(=O)(Nc1ccc(CCCC2CCCC2)cc1F)c1ccc2c(c1)CCN(Cc1cnn(C3CCC3)c1)C2 [Working Example 2-9] | 142 |  |
| CC(C)(C)n1cc(CN2CCc3cc(S(=O)(=O)Nc4ccc(OCCC5CCOCC5)cc4F)ccc3C2)cn1 [Working Example 2-10] | 198 |  |
| CCn1cc(CN2CCc3cc(S(=O)(=O)Nc4ccc(CCCC5CCCC5)cc4F)ccc3C2)cn1 [Working Example 6-82] | 182 |  |
| O=S(=O)(Nc1ccc(OCCC2CCOCC2)cc1F)c1ccc2c(c1)CCN(Cc1cnc(C(F)(F)F)nc1)C2 [Working Example 6-83] | 193 |  |
| O=S(=O)(Nc1ccc(CCCC2CCCC2)cc1F)c1ccc2c(c1)CCN(Cc1ccc(OCC(F)(F)F)nc1)C2 [Working Example 6-84] | 248 |  |
| CC(C)(C)c1cc(CN2CCc3cc(S(=O)(=O)Nc4ccc(CCCC5CCCC5)cc4F)ccc3C2)ccn1 [Working Example 6-85] | 71 |  |
| CC(C)(C)c1ncc(CCN2CCc3cc(S(=O)(=O)Nc4ccc(CCCC5CCCC5)cc4F)ccc3C2)s1 [Working Example 6-88] | 248 |  |
| CC(C)(C)c1cc(CCN2CCc3cc(S(=O)(=O)Nc4ccc(CCCC5CCCC5)cc4F)ccc3C2)ccn1 [Working Example 6-90] | 164 |  |
| Cc1nc(-c2ccccc2)sc1CN1CCc2cc(S(=O)(=O)Nc3ccc(CCCC4CCCC4)cc3F)ccc2C1 [Working Example 7-65] | 118 |  |
| Cc1c(CN2CCc3cc(S(=O)(=O)Nc4ccc(CCCC5CCCC5)cc4F)ccc3C2)cnn1-c1ccccc1 [Working Example 7-70] | 81 |  |
| Cc1nn(-c2ccccc2)c(C)c1CN1CCc2cc(S(=O)(=O)Nc3ccc(CCCC4CCCC4)cc3F)ccc2C1 [Working Example 7-71] | 57 |  |
| O=S(=O)(Nc1ccc(CCCC2CCCC2)cc1F)c1ccc2c(c1)CCN(Cc1cnc(-c3ccc(Cl)cc3)s1)C2 [Working Example 7-74] | 105 |  |
| CCCCCCOc1ccc(NS(=O)(=O)c2ccc3c(c2)CCN(CCc2ccc(C(C)(C)C)cc2)C3)c(F)c1 [Working Example 8-3] |  | IC50 (human MGAT2; [2]): 133 nM |
| CCCCCCOc1ccc(NS(=O)(=O)c2ccc3c(c2)CCN(CCc2cnc(C(C)(C)C)cn2)C3)c(F)c1 [Working Example 9-20] |  | IC50 (human MGAT2; [2]): 212 nM |
| CCCCCCOc1ccc(NS(=O)(=O)c2ccc3c(c2)CCN(CCc2ncc(C(C)(C)C)cn2)C3)c(F)c1 [Working Example 9-21] |  | IC50 (human MGAT2; [2]): 164 nM |
| CCCCCCCCOc1ccc(NS(=O)(=O)c2ccc3c(c2)CCN(C(C)Cc2ccc(C(C)(C)C)cc2)C3)c(F)c1 (stereo not shown) [Working Example 10-9] |  | IC50 (human MGAT2; listed as 10-9, read-out: Activity Value [nM] (IC50, concentration at which 50% of produced free CoA was inhibited)): 96 nM |
| CCCCCCCCOc1ccc(NS(=O)(=O)c2ccc3c(c2)CCN(C(C)Cc2ccc(C(C)(C)C)cc2)C3)c(F)c1 (stereo not shown) [Working Example 10-10] |  | IC50 (human MGAT2; listed as 10-10, read-out: Activity Value [nM] (IC50, concentration at which 50% of produced free CoA was inhibited)): 97 nM |
| CC(c1ccc(C(C)(C)C)nc1)N1CCc2cc(S(=O)(=O)Nc3ccc(OCCCc4ccccc4)cc3F)ccc2C1 (stereo not shown) [Working Example 11-2] |  | IC50 (human MGAT2; [2]): 121 nM |
| CC(c1ccc(C(C)(C)C)cc1)N1CCc2cc(S(=O)(=O)Nc3ccc(OCCCc4ccccc4)cc3F)ccc2C1 (stereo not shown) [Working Example 11-3] |  | IC50 (human MGAT2; [2]): 116 nM |
| CCC(c1ccc(C(C)(C)C)cc1)N1CCc2cc(S(=O)(=O)Nc3ccc(OCCCc4ccccc4)cc3F)ccc2C1 (stereo not shown) [Working Example 11-4] |  | IC50 (human MGAT2; [2]): 235 nM |
